Assay results published in patent US9657324B1, “Method for treating or preventing mood disorders” (VIRUS IKAGAKU KENKYUSHO INC., priority 2008, dated 2017).

Key:
CAML = assay: Expression of CAML in HHV-6-infected U373 cells in the presence of ganciclovir (indirect fluorescent antibody technique); format: cell-based, human; details: U373 cell line infected with HHV-6, ganciclovir added after infection
Method: The human glial cell line (U373) is infected with HHV-6, and then ganciclovir is added. The amount of CAML expressed in the infected cell line in the presence of ganciclovir is measure by the indirect fluorescent antibody technique.

HHV-6 variant B = details: "is considered to be", read-out: effective concentration against HHV-6 variant B in terms of IC50; cited from earlier work
[1] = tested on: HHV-6 variant B HST strain; assay: Expression of SITH-1 in HHV-6-infected U373 cells in the presence of ganciclovir (real-time PCR); format: cell-based, human herpesvirus 6; details: U373 glial cell line infected with HHV-6, one day after infection, relative to ganciclovir (-)
Method: The human glial cell line (U373) was infected with HHV-6 in the presence of ganciclovir, and the amount of SITH-1 expressed in the infected cell line was measured by the real-time PCR technique.
The U373 cells were cultured overnight in the presence of ganciclovir at various concentrations (FIG. 14) and infected with an HHV-6 variant B HST strain, and the amount of SITH-1 that was expressed in cells one day after the infection was measured by the real-time PCR technique.
Since the effective concentration of ganciclovir against HHV-6 variant B is considered to be about 10 μM in terms of IC50, three concentrations were obtained by 3-fold dilutions, with 10 μM in the middle.
The vertical axis of the graph in FIG. 14 plots the relative amount of expression of SITH-1 mRNA, with the value for ganciclovir (-) being taken as unity. […] When ganciclovir was used in the amounts of […], 10 μM and 30 μM, the amount of expression of SITH-1 mRNA was suppressed by about 20%, 40% and more than 80%, respectively.

[2] = tested on: HHV-6 or Epstein-Barr virus (EBV); details: patients with encephalitis/encephalopathy-like and long-standing fatigue symptoms, presumably due to HHV-6 or EBV infection; cited from earlier work

Row | SMILES | amount of CAML expression (CAML) | IC50 (HHV-6 variant B) [µM] | amount of expression of SITH-1 mRNA suppressed ([1]; ganciclovir 3 μM) | amount of expression of SITH-1 mRNA suppressed ([1]; ganciclovir 10 μM) [%] | amount of expression of SITH-1 mRNA suppressed ([1]; ganciclovir 30 μM) | patients who had their symptoms improved [2] [%]
1 | Nc1nc(O)c2ncn(COC(CO)CO)c2n1 [ganciclovir] | suppressed by ganciclovir in a dose-dependent manner | ~10 | about 20% | ~40 | more than 80% | 
2 | CC(C)[C@H](N)C(=O)OCC(CO)OCn1cnc2c(=O)nc(N)[nH]c21 (stereo partly drawn) [valganciclovir] |  |  |  |  |  | 75
